# Values of other authors in US20240082463A1, “COATED MEDICAL PRODUCT” (HEMOTEQ AG, priority 2020, published 2024).
# Where two headings read alike, the source gives them in different places.
# Conditions: cited from earlier work
smiles,measurement,setting,value
"C1COCCO1 [1,4-Dioxane]",logKOW,"Table 6, rounded values",−0.4
same,logKOW,Table 7,−0.42
same,log KOW,,about −0.4
CCCCc1ccccc1 [1-Phenylbutane],logKOW,Table 4,3.4
"CC(C)CC(C)(C)C [2,2,4-Trimethylpentane]",logKOW,"Table 2, rounded values",4.1
"CCC(C)(C)C [2,2-Dimethylbutane]",logKOW,"Table 2, rounded values",3.8
"CCCC(C)(C)C [2,2-Dimethylpentane]",logKOW,"Table 2, rounded values",3.8
"CCC(C)C(C)C (stereo not shown) [2,3-Dimethylpentane]",logKOW,"Table 2, rounded values",3.8
CC(C)Cc1ccccc1 [2-Methyl-1-phenylpropane],logKOW,Table 4,3.4
CCCCC(C)C [2-Methylhexane],logKOW,"Table 2, rounded values",3.7
CCCC(C)C [2-Methylpentane],logKOW,"Table 2, rounded values",3.6
CCC(C)c1ccccc1 (stereo not shown) [2-Phenylbutane],logKOW,Table 4,3.4
CC(C)=O [Acetone],logKOW,"Table 6, rounded values",−0.2
same,logKOW,Table 7,−0.24
CC#N [Acetonitrile],logKOW,"Table 6, rounded values",−0.3
same,logKOW,Table 7,−0.34
COc1ccccc1 [Anisol],logKOW,Table 4,2.1
ClC(Cl)(Cl)Cl [Carbon tetrachloride],logKOW,"Table 3, rounded orientation values",approx. 2.8
same,logKOW,Table 4,2.8
Clc1ccccc1 [Chlorobenzene],logKOW,Table 4,2.9
same,log KOW,,about 2.9
CC(C)c1ccccc1 [Cumol],logKOW,Table 4,3.4
C1CCCCCCCCC1 [Cyclodecane],logKOW,"Table 2, rounded values",5.5
C1CCCCCC1 [Cycloheptane],logKOW,"Table 2, rounded values",4
C1CCCCCCCC1 [Cyclononan],logKOW,"Table 2, rounded values",5.1
C1CCCC1 [Cyclopentane],logKOW,"Table 2, rounded values",3.0
same,logKOW,Table 8,3.00
CCCCCCCCCC [Decan],logKOW,"Table 2, rounded values",6.3
ClCCl [Dichloromethane],logKOW,"Table 6, rounded values",+1.3
same,logKOW,Table 7,1.25
CCOCC [Diethyl ether],logKOW,"Table 6, rounded values",+0.9
same,logKOW,Table 7,0.89
CCCOCCC [Dipropyl ether],logKOW,"Table 6, rounded values",+2.0
CCOc1ccccc1 [Ethoxybenzene],logKOW,Table 4,2.5
CCOC(C)=O [Ethyl acetate],logKOW,"Table 6, rounded values",+0.7
same,logKOW,Table 7,0.73
CCc1ccccc1 [Ethylbenzene],logKOW,Table 4,3.2
OCC(O)CO [Glycerin],logKOW,"Table 6, rounded values",−1.8
CCCCCCC [Heptane],logKOW,"Table 2, rounded values",4.5
same,logKOW,Table 8,4.50
CCC(C)C [Isopentane],logKOW,"Table 2, rounded values",3.2
CO [Methanol],logKOW,"Table 6, rounded values",−0.7
same,logKOW,Table 7,−0.74
COC(C)=O [Methyl acetate],logKOW,"Table 6, rounded values",+0.2
CC1CCCCC1 [Methylcyclohexane],logKOW,"Table 2, rounded values",3.9
CC1CCCC1 [Methylcyclopentane],logKOW,"Table 2, rounded values",3.4
CN1CCCC1=O [N-methylpyrrolidone],logKOW,"Table 6, rounded values",−0.5
CCCCCCCCC [Nonan],logKOW,"Table 2, rounded values",5.7
CCCCCCCC [Octane],logKOW,"Table 2, rounded values",5.2
CCC(=O)O [Propionic acid],logKOW,Table 7,0.32
"CCC(C)=O [Solution 2-Butanone, 2-Butanone]",logKOW,Table 7,0.29
"CCCC(C)=O [Solution 2-Pentanone, 2-Pentanone]",logKOW,"Table 6, rounded values",+0.9
same,logKOW,Table 7,0.84
FC(F)(F)C(F)(F)C(F)(F)C(F)(F)C(F)(F)C(F)(F)F [Tetradecafluorohexane],logKOW,Table 4,5.8
"C1CCOC1 [Tetrahydrofuran (THF), Tetrahydrofuran]",logKOW,"Table 6, rounded values",+0.5
same,logKOW,Table 7,0.46
O [Water],logKOW,"Table 5, rounded orientation values",approx. −1.4
CC(C)Cc1ccccc1 [iso-butylbenzene],logKOW,Table 4,4.1
Cc1cccc(C)c1 [m-Xylene],logKOW,Table 4,3.2
same,logKOW,Table 8,3.20
CCCOC(C)=O [n-Propyl acetate],logKOW,"Table 6, rounded values",+1.4
Clc1ccccc1Cl [o-Dichlorobenzene],logKOW,Table 4,3.4
Cc1ccccc1C [o-Xylene],logKOW,Table 4,3.1
same,logKOW,Table 8,3.12
Cc1ccc(C)cc1 [p-Xylene],logKOW,Table 4,3.2
same,logKOW,Table 8,3.15
CC(C)(C)C1CCCCC1 [tert-butylcyclohexane],logKOW,"Table 2, rounded values",4.0
